Measured values reported in PubChem BioAssay AID2060885 (Molecular Pharmacology Branch, DTP, NCI, 2025).

Test system: NCI-H23 complex spheroids with HUVEC/MSC, viability
Experiment: Anticancer human tumor NCI-H23 cell line growth inhibition [RAS];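 further: spheroids exposed to compound for 7 days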;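 on viability, T/C: 100% = DMSO vehicle control viability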
Conditions: for IC50: curve of first compound; for viability, T/C: stronger effect = lower value
From the text: RAS pathway inhibitors in Combinations in Complex Spheroids
A high-throughput screen of multi-cell type tumor spheroids was designed to identify active combinations of RAS pathway inhibitors and targeted small molecules. Complex spheroids include a stromal component modeled by human endothelial cells (HUVEC) and fibroblasts modeled by human mesenchymal stem cells (MSCs). The concentration ranges selected for each drug and investigational agent were based upon clinically achievable concentrations if the clinical Cmax of the agent was known.
Compounds. The drugs and investigational agents: abemaciclib (NSC768073), cobimetinib (NSC768068), divarasib (GDC6063, NSC841802), docetaxel (NSC628503), GDC-1971 (RLY-1971, NSC841576), gemcitabine (NSC613327), inavolisib (NSC800729), ipatasertib (NSC767898), KB-0742 (NSC834161), MRTX-1133 (NSC836407), osimertinib (NSC779217), RMC-4630 (NSC839698), RMC-6236 (NSC851965), RMC-6291 (NSC852671), Ro-3306 (NSC812927), sapanisertib (NSC764658), SN-38 (NSC673596), staurosporine (NSC755774), SY5609 (NSC837396), and tovorafenib (DAY101, NSC766906), were obtained from the National Cancer Institute (NCI) Developmental Therapeutics Program Chemical Repository. The FDA-approved anticancer drug set is available from the NCI Developmental Therapeutics Program. […] The stock solutions were prepared in dimethyl sulfoxide (DMSO, Sigma-Aldrich, St. Louis, MO, cat. D2650) at 800-fold the tested concentration and stored at -70 degrees C prior to their use. All drugs and investigational agents were tested over a range starting from a high concentration at or near the clinical Cmax and decreasing in half-log increments. If the clinical Cmax for an agent had not been determined, the highest concentration tested was 10 microM.
Cell Culture. All cells were maintained in an incubator at 37 degrees C and 5% CO2 with 95% humidity. The PDC lines were cultured according to standard operating procedures established by the NCI PDMR. All PDCs were thawed and cultured in Matrigel-coated flasks prepared with a working solution of 1X Ham's F-12 nutrient mix, without supplementation (Invitrogen, Waltham, MA, cat. 11765054), 100 U/mL penicillin-streptomycin (Invitrogen, cat. 15140122), and 2.5% Matrigel (Corning Inc., Corning, NY, cat. 354248) for the first three passages. The 362531-283-R-J2-PDC and 782815-120-R-J1-PDC lines were cultured in 6C/Colon 1B media, which includes advanced DMEM/F-12 (Thermo Fisher Scientific, cat. 12634028), 10 mM HEPES (Thermo Fisher Scientific, cat. 15630080), 1X GlutaMAX supplement (Thermo Fisher Scientific, cat. 35050061), 0.1 mg/mL primocin (InvivoGen, San Diego, CA, cat. ant-pm-2), 10% defined fetal bovine serum, heat inactivated (HyClone Laboratories Inc., Logan, UT, cat. SH30070.03HI), 50% L-WRN conditioned media (ATCC, cat. CRL-3276), 1.25 mM N-Acetyl-L-cysteine (Sigma-Aldrich, cat. A9165), 10 mM nicotinamide (Sigma-Aldrich, cat. N0636), 1X B-27 supplement (Thermo Fisher Scientific, cat. 17504044), 1X N-2 supplement (Thermo Fisher Scientific, cat. 17502048), 50 ng/mL human EGF (Thermo Fisher Scientific, cat. PHG0311), and 10 microM Y-27632 dihydrochloride (Tocris Bioscience, cat. 1254). The K12877-001-R-J1-PDC line was cultured in 6I media, which includes all 6C/Colon 1B media plus 10 ng/mL human FGF-10 (PeproTech, cat. 100-26), 1 ng/mL human FGF-2 (PeproTech, cat. 100-18B), 1 µM prostaglandin E2 (Tocris Bioscience, cat. 2296), […] hydrocortisone (Sigma-Aldrich, cat. H4001), and […] bovine insulin (Sigma-Aldrich, cat. I6634). The K86415-001-R-J1-PDC line was cultured in 6D media, which includes all 6C/Colon 1B media components minus the L-WRN conditioned media. The 485176-168-R4-J1-PDC was cultured in PANC media, which includes all 6C/Colon 1B media plus 100 ng/mL human FGF-10 (PeproTech, cat. 100-26), 500 nM SB-431542 (Selleckchem, cat. S1067), and 10 nM gastrin (Tocris Bioscience, cat. 3006). […]

SMILES: CC(C)NCC(C(=O)N1CCN(c2ncnc3c2C(C)CC3O)CC1)c1ccc(Cl)cc1 (configuration not stated) + C#Cc1c(F)ccc2cc(O)cc(-c3ncc4c(N5CC6CCC(C5)N6)nc(OCC56CCCN5CC(F)C6)nc4c3F)c12
- IC50 (second compound 0.0316 µM): > 10 µM
- IC50 (second compound 0.1 µM): > 10 µM
- IC50 (second compound 0.316 µM): > 10 µM
- IC50 (second compound 1 µM): > 10 µM
- IC50 (second compound 3.16 µM): 0.52 µM
- IC50 (second compound 10 µM): < 0.0316 µM
- viability, T/C (second compound 0.0316 µM, first compound 0.0316 µM): 100%
- viability, T/C (second compound 0.0316 µM, first compound 0.1 µM): 133%
- viability, T/C (second compound 0.0316 µM, first compound 0.316 µM): 89.4%
- viability, T/C (second compound 0.0316 µM, first compound 1 µM): 90.5%
- viability, T/C (second compound 0.0316 µM, first compound 3.16 µM): 76%
- viability, T/C (second compound 0.0316 µM, first compound 10 µM): 74.2%
- viability, T/C (second compound 0.1 µM, first compound 0.0316 µM): 107%
- viability, T/C (second compound 0.1 µM, first compound 0.1 µM): 122%
- viability, T/C (second compound 0.1 µM, first compound 0.316 µM): 95.3%
- viability, T/C (second compound 0.1 µM, first compound 1 µM): 91%
- viability, T/C (second compound 0.1 µM, first compound 3.16 µM): 69.7%
- viability, T/C (second compound 0.1 µM, first compound 10 µM): 66.6%
- viability, T/C (second compound 0.316 µM, first compound 0.0316 µM): 122%
- viability, T/C (second compound 0.316 µM, first compound 0.1 µM): 131%
- viability, T/C (second compound 0.316 µM, first compound 0.316 µM): 99.7%
- viability, T/C (second compound 0.316 µM, first compound 1 µM): 84.4%
- viability, T/C (second compound 0.316 µM, first compound 3.16 µM): 70.2%
- viability, T/C (second compound 0.316 µM, first compound 10 µM): 55.7%
- viability, T/C (second compound 1 µM, first compound 0.0316 µM): 108%
- viability, T/C (second compound 1 µM, first compound 0.1 µM): 101%
- viability, T/C (second compound 1 µM, first compound 0.316 µM): 73.6%
- viability, T/C (second compound 1 µM, first compound 1 µM): 66.7%
- viability, T/C (second compound 1 µM, first compound 3.16 µM): 56.1%
- viability, T/C (second compound 1 µM, first compound 10 µM): 49%
- viability, T/C (second compound 3.16 µM, first compound 0.0316 µM): 68.6%
- viability, T/C (second compound 3.16 µM, first compound 0.1 µM): 69%
- viability, T/C (second compound 3.16 µM, first compound 0.316 µM): 51.6%
- viability, T/C (second compound 3.16 µM, first compound 1 µM): 44.9%
- viability, T/C (second compound 3.16 µM, first compound 3.16 µM): 37.9%
- viability, T/C (second compound 3.16 µM, first compound 10 µM): 32.6%
- viability, T/C (second compound 10 µM, first compound 0.0316 µM): 38.4%
- viability, T/C (second compound 10 µM, first compound 0.1 µM): 40.9%
- viability, T/C (second compound 10 µM, first compound 0.316 µM): 34.1%
- viability, T/C (second compound 10 µM, first compound 1 µM): 26.1%
- viability, T/C (second compound 10 µM, first compound 3.16 µM): 22.8%
- viability, T/C (second compound 10 µM, first compound 10 µM): 18.5%
